This is an account of results in US10759826B2, “15β-substituted estrone derivatives as selective inhibitors of 17β-hydroxysteroid-dehydrogenases, method of preparation and use thereof” (USTAV ORGANICKE CHEMIE A BIOCHEMIE AV CR, V.V.I., priority 2016, dated 2020).

For data set [1], the system named is U2OS cells. The experiment in a line: Cell viability (ATP) of unmodified U2OS cells, parallel to reporter assay. It counts as cell-based, human. The protocol:
To separate the antagonist activity of test compounds from the cytotoxic effect on U2OS cells (cell line derived from osteosarcoma), an experiment for determination of cell viability was performed in parallel with the reporter assay. Original, genetically unmodified U2OS cells were grown under the same conditions as the reporter cells. These cells were further treated and incubated with the compounds in a completely identical manner and for the same time as cells in the reporter assay. At the end of the experiment, the amount of ATP was determined using BriteLite luciferase homogeneous assay as a measure of cell viability. The data were then processed together with data from the reporter assays.
A general note: A reporter such as luciferase makes a cellular process visible.

Data set [2] has as its target luciferase (Photinus pyralis, UniProt P08659). The data set can be described thus: Luciferase activity in U2OS cell line constitutively expressing luciferase gene. Type of data set: cell-based. The conditions noted are these: read-out: Luciferase activity IC50. The protocol:
In order to distinguish between the specific, steroid hormone response elements-driven regulation of the luciferase expression and the possible effects of test compounds on the luciferase activity, compounds were tested in parallel experiment on a U2OS cell line constitutively expressing luciferase gene.
Luciferase activity was determined by a commercial kit Britelite plus a luciferase reporter gene assay reagent (Perkin Elmer, USA), 24 h after addition of compounds to cells. The intensity of luminescence was measured on an Envision multimode spectrophotometer (PerkinElmer).

Data set [3] has as its target T1, 17βHSD5 (Homo sapiens, UniProt P42330).
T1 sequence (P42330 1-323): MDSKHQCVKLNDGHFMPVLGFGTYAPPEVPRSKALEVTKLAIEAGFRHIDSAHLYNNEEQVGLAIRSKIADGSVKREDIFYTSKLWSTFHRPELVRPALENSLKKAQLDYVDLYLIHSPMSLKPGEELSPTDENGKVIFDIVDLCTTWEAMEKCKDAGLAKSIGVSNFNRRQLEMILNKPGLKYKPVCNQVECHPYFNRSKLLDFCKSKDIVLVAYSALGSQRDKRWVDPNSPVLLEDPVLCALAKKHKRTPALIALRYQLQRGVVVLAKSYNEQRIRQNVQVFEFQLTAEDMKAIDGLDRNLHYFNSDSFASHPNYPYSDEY
The conditions noted are these: cited from earlier work; for IC50: literature.

Data set [4] addresses T2, estrogen receptor α (ERα) (Homo sapiens, UniProt P03372).
T2 construct: expressed in transfected cells
T2 sequence (P03372 1-595): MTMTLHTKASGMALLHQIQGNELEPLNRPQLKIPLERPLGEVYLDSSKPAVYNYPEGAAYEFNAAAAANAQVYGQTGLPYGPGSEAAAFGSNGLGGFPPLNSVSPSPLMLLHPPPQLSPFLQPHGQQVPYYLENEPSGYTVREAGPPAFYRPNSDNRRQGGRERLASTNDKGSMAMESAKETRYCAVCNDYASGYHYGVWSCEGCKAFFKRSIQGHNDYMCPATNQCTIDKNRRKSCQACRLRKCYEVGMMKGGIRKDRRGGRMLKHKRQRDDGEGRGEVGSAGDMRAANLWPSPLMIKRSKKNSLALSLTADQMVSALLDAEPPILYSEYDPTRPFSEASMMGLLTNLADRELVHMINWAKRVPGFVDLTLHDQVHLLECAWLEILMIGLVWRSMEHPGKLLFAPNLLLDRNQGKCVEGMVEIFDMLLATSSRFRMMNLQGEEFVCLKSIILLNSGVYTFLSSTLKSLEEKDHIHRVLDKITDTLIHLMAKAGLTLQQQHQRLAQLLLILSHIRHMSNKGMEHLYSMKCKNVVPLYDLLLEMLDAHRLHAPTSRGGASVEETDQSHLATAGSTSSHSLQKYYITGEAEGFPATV
The data set can be described thus: ERα luciferase reporter assay in U2OS cells. To be noted: testing range 10 μmol·l^−1 to 1 nmol·l^−1. It counts as cell-based.

Data set [5] addresses T3, human 17βHSD1 (Homo sapiens, UniProt P14061).
T3 sequence (P14061 1-328): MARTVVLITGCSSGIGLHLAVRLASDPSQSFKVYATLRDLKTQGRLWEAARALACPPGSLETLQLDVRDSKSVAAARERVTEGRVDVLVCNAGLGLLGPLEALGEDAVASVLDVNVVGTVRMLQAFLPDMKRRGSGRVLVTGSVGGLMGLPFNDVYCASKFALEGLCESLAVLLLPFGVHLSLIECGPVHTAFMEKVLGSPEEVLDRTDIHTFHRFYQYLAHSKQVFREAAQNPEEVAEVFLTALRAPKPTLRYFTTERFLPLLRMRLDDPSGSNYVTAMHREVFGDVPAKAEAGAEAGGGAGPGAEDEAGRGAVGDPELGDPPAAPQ
The experiment in a line: 17βHSD inhibition in MCF-7 cells transfected with human 17βHSD1, E1 in supernatant. Type of data set: cell-based. Set-up: expressed in transfected cells; host or cells: MCF-7. The conditions noted are these: 10 μmol·l^−1. The protocol:
(§1) For this experiment, non-cytotoxic concentrations of estrone derivative (10 μmol·l^−1) were used. E1 levels were determined by an immuno-enzymatic assay.

The subject of data set [6] is U2OS. The experiment in a line: MTT cytotoxicity assay, U2OS. The conditions noted are these: Homo sapiens. Type of data set: cell-based. From the text: (§2) Compounds 5, 6, 7, 9, 14 and 15 were used for evaluation of antitumor activity. MTT cytotoxicity assay was used in vitro on cell lines derived from normal tissues and from tumors. Specifically, these were the K562 line (human myeloid leukemia), K562-Tax (human myeloid leukemia resistant to taxol and overexpressing PgP protein for multidrug resistance), CEM (T-lymphoblastic leukemia), CEM-DNR bulk (T-lymphoblastic leukemia resistant doxorubicin, lacking the expression of the target gene for inhibitors of topoisomerase II alpha), A549 line (human lung adenocarcinoma), HCT116p53 wt (human colon cancer), HCT116p53−/− (human colon cancer, mutant p53), U2OS line of human osteosarcoma and two fibroblast lines MRC5 and BJ as examples of non-tumor cells. Expression characteristics, profiles of susceptibility to classical antitumor drugs and methodology of the MTT cytotoxicity assay were repeatedly published (e.g. Noskova et al. Neoplasma 2002, 49, 418; S̆arek et. al. J. Med. Chem. 2003, 46, 25, 5402).
A general note: Formazan colour is commonly taken as a measure of viable cells.

For data set [7], the system named is K562-Tax. The data set can be described thus: MTT cytotoxicity assay, K562-Tax. It counts as cell-based. The conditions noted are these: Homo sapiens.
Source text: as §2

Data set [8] concerns HCT116p53 wt. The data set can be described thus: MTT cytotoxicity assay, HCT116p53 wt. To be noted: Homo sapiens. Type of data set: cell-based.
Source text: as §2

The target of data set [9] is T3, human 17βHSD1. The data set can be described thus: 17βHSD inhibition in CHO cells transfected with human 17βHSD1, E1 in supernatant. Type of data set: cell-based. On the set-up: expressed in transfected cells. The conditions noted are these: 10 μmol·l^−1. The protocol:
as §1

Data set [10] concerns CEM. The data set can be described thus: MTT cytotoxicity assay, CEM. Type of data set: cell-based. The conditions noted are these: Homo sapiens, CCRF-CEM.
Source text: as §2

Data set [11] has as its system MRCS. The data set can be described thus: MTT cytotoxicity assay, MRC5 fibroblasts. It counts as cell-based. The conditions noted are these: Homo sapiens, Fibroblast, non-tumor fibroblasts.
Source text: as §2

For data set [12], the system named is BJ. The data set can be described thus: MTT cytotoxicity assay, BJ fibroblasts. Type of data set: cell-based. The conditions noted are these: Homo sapiens, non-tumor fibroblasts.
Source text: as §2

For data set [13], the system named is K562. The experiment in a line: MTT cytotoxicity assay, K562. Type of data set: cell-based. To be noted: Homo sapiens.
Source text: as §2

The subject of data set [14] is A549. The data set can be described thus: MTT cytotoxicity assay, A549. To be noted: Homo sapiens. It counts as cell-based.
Source text: as §2

Data set [15] relates to CEM-DNR-bulk. The data set can be described thus: MTT cytotoxicity assay, CEM-DNR-bulk. It counts as cell-based.
Source text: as §2

In data set [16] the target is T4, human 17βHSD type 1 (Homo sapiens, UniProt P14061).
T4 construct: made in house; expressing system suspended in buffer, not purified
T4 sequence (P14061 1-328): T3 sequence (P14061 1-328)
The data set can be described thus: Inhibition of recombinant 17βHSD type 1, tritium-labeled substrate conversion. Type of data set: biochemical. The protocol:
(§3) The inhibitory activity of the test substances was determined for individual isoenzymes from the 17βHSD family, specifically these were the types 1, 2, 3, 4, 5 and 7. Escherichia coli and mammalian cells expression systems were used for recombinant expression of individual isozymes of human 17βHSD. Only in the case of 17HSD5 the enzyme was partially purified and supernatant obtained by centrifugation of the bacterial lysate was used for testing. Systems expressing specific 17βHSD type were suspended in a reaction buffer and incubated with tritium-labeled substrates and respective cofactors at 37° C. in two parallel tests: the control arrangement (DMSO without the inhibitor) and the test arrangement (DMSO with the inhibitor). DMSO serves as a negative control in this case. After 20-30% of the substrate was converted by the activity of the enzyme to the product in a control test, both tests were terminated. Substrate and product from the test arrangement were isolated by SPE (solid phase extraction), and then separated by reverse phase HPLC. Substrate conversion was determined by integration of the signals of the substrate and product, and was expressed in %. For the purposes of the subsequent calculation of enzyme inhibition, the conversion of the control test was designated as 0% inhibition. All tests were performed in triplicates. IC50 values were subsequently determined by a standard method using the “One Ligand Binding” model of SigmaPlot kinetics module (Schustera et. al. J. Ster. Biochem. Mol. Biol. 2011, 125, 148; Möller et. al. Biioorg. Med. Chem. Lett. 2009, 19, 6740; Möller et. al. PLoS One, 2010, 5, 6, e10969).

The subject of data set [17] is HCT116p53-/-. The experiment in a line: MTT cytotoxicity assay, HCT116p53-/-. Type of data set: cell-based. To be noted: Homo sapiens.
Source text: as §2

Data set [18] has as its target T5, human 17βHSD type 5 (Homo sapiens, UniProt P42330).
T5 construct: made in house; host or cells: bacteria (Escherichia coli); supernatant of the lysate
T5 sequence (P42330 1-323): T1 sequence (P42330 1-323)
The data set can be described thus: Inhibition of recombinant 17βHSD type 5, tritium-labeled substrate conversion. Type of data set: biochemical. The conditions noted are these: 1 μmol · l^−1 test substance. The protocol:
as §3

In data set [19] the test system is T-47D ER+ cells. The conditions noted are these: Laplante et al. 2008; cited from earlier work.

Read-outs that look alike come from different tables or passages of the source.

As a reminder, the IC50 is the concentration at which inhibition is half-maximal. On to `CC#C[C@]1(O)CC[C@H]2[C@@H]3CCC4=CC(=O)CCC4=C3[C@@H](c3ccc(N(C)C)cc3)C[C@@]21C` [RU486, reference compound], for which the IC50 in [1] (Homo sapiens) was 47.7 µM; in data set [2], 17.9 µM.

By Ki is commonly meant a dissociation constant, usually derived from enzyme kinetics or from competition with a known ligand. On to `CC1(C)CCC2(CCC3C4CCc5cc(C(N)=O)ccc5C4CCC32C)OC1=O` [EM1404, 3-carboxamido-1,3,5-(10)-estratrien-17(R)-spiro-2-(5,5-dimethyl-6-oxo)tetra-hydro-pyran], for which the Ki in [3] (Qiu et al. 2007, WO9946279) is 0.0069 µM. Further, the IC50 in data set [3] was 0.0032 µM.

As a reminder, the inhibition is the relative decrease from the control value, in per cent. The melting point is the temperature of the solid-liquid transition. In the case of `COC(=O)c1ccc(CC[C@@H]2CC(=O)[C@@]3(C)CC[C@@H]4c5ccc(O)cc5CC[C@H]4[C@H]23)cc1` [Compound 7, Methyl 4-(2-(3-hydroxy-estra-1,3,5(10)-trien-17-on-15β-yl)ethyl)benzoate], the melting point stood at 139 °C. Also, the “ER antagonism in words” value in [4] is on record as “ER antagonist”. Also, the “E1 in supernatant, MCF-7” value in data set [5] (8 hr.) is 1921 pg/mL. Also, the “E1 in supernatant, MCF-7” value in data set [5] (24 hr.) was determined as 1839 pg/mL. The molecule also showed an IC50 in data set [6] greater than 50 µM. This molecule registered an IC50 in [7] of 12.5 µM. The IC50 in data set [8] was greater than 50 µM. Also, in data set [9] (8 hr.), the “E1 in supernatant, CHO” value came out at 2101 pg/mL. Moreover, the “E1 in supernatant, CHO” value in data set [9] (24 hr.) came out at 1476 pg/mL. The molecule also came in with an IC50 in data set [10] of 25.6 µM. In addition, the IC50 in data set [11] is greater than 50 µM. Further, the IC50 in data set [12] is greater than 50 µM. In addition, the IC50 in data set [13] is greater than 50 µM. In data set [14], this molecule returned an IC50 greater than 50 µM. This molecule also yielded an IC50 in data set [15] of 32.8 µM. The inhibition at 0.1 µM in data set [16] (0.1 μmol · l^−1 test substance, read-out: % of inhibition of human 17βHSD1) was 84%. In data set [16] (1 μmol · l^−1 test substance, read-out: % of inhibition of human 17βHSD1), the inhibition at 1 µM was 99%. For the same molecule, the IC50 in data set [16] (read-out: 17βHSD1 IC50) stood at 0.016 µM. Further, the IC50 in [17] is greater than 50 µM. Also, the “% of inhibition of human 17βHSD5” value in data set [18] amounted to 63%.

In the case of `C[C@]12CC[C@@H]3c4ccc(O)cc4CC[C@H]3[C@@H]1C[C@H](Cc1cccc(C(N)=O)c1)[C@@H]2O` [Compound E2B, 16β-m-carbamoylbenzyl-E2], the “reduction of proliferation induced by the physiological level of E1” value in data set [19] is listed as 62%.

With “3-deoxyestradiol with C-17-dimethyl-spiro-δ-lactone”, in data set [3], the IC50 is 0.0029 µM.

With “4-hydroxytamoxifen [Compound 4-OHT, reference compound]”, the IC50 in data set [1] came to 12 µM; in [2], 10.2 µM.
